From ChEMBL document CHEMBL6074668 (J Med Chem, 2024)
The source made the active and inactive calls. The calls are words filed in the database; no cut-off is given here.

What was measured:
[1] = molecular target: T1, Kappa-type opioid receptor (Homo sapiens, UniProt P41145); experiment: Agonist activity at human kappa opioid receptor expressed in CHO-K1 cells assessed as inhibition of forskolin-stimulated cAMP accumulation by HitHunter assay based luminescence analysis; format: functional, cell-based
[2] = molecular target: T2, Mu-type opioid receptor (Homo sapiens, UniProt P35372); experiment: Agonist activity at human mu opioid receptor expressed in CHO-K1 cells assessed as inhibition of forskolin-stimulated cAMP accumulation by HitHunter assay based luminescence analysis; format: functional, cell-based
[3] = molecular target: T1, Kappa-type opioid receptor; experiment: Displacement of [3H]U69593 from kappa opioid receptor (unknown origin) expressed in human U2OS cell membrane by competitive radioligand binding assay; format: cell membranes
[4] = molecular target: T2, Mu-type opioid receptor; experiment: Displacement of [3H]DAMGO from mu opioid receptor (unknown origin) expressed in CHO cell membrane by competitive radioligand binding assay; format: cell membranes
[5] = molecular target: T1, Kappa-type opioid receptor; experiment: Binding affinity to kappa opioid receptor (unknown origin) by radioligand displacement assay
[6] = molecular target: 5-hydroxytryptamine receptor 2B (Homo sapiens, UniProt P41595); experiment: Binding affinity to 5HT2B receptor (unknown origin) by radioligand displacement assay
[7] = molecular target: T3, 5-hydroxytryptamine receptor 3A (Homo sapiens, UniProt P46098); experiment: Binding affinity to 5HT3 receptor (unknown origin) by radioligand displacement assay
T3 sequence (P46098 whole entry): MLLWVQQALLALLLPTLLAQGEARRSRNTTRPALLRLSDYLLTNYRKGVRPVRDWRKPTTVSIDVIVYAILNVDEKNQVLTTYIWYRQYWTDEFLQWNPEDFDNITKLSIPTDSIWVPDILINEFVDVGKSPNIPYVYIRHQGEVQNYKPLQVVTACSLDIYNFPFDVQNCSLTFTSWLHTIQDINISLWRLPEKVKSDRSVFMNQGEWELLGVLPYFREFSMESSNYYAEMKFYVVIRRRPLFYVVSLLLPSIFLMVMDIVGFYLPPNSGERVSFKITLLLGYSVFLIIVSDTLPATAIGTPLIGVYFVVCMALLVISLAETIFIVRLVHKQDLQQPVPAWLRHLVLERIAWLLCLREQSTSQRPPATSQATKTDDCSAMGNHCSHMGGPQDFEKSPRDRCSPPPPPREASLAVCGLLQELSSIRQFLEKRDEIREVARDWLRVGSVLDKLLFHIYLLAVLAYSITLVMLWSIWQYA

[8] = molecular target: 5-hydroxytryptamine receptor 5A (Homo sapiens, UniProt P47898); experiment: Binding affinity to 5HT5A receptor (unknown origin) by radioligand displacement assay
[9] = molecular target: 5-hydroxytryptamine receptor 7 (Homo sapiens, UniProt P34969); experiment: Binding affinity to 5HT7A receptor (unknown origin) by radioligand displacement assay
[10] = molecular target: T4, Alpha-1B adrenergic receptor (Homo sapiens, UniProt P35368); experiment: Binding affinity to alpha1B adrenergic receptor (unknown origin) by radioligand displacement assay
T4 sequence (P35368 whole entry): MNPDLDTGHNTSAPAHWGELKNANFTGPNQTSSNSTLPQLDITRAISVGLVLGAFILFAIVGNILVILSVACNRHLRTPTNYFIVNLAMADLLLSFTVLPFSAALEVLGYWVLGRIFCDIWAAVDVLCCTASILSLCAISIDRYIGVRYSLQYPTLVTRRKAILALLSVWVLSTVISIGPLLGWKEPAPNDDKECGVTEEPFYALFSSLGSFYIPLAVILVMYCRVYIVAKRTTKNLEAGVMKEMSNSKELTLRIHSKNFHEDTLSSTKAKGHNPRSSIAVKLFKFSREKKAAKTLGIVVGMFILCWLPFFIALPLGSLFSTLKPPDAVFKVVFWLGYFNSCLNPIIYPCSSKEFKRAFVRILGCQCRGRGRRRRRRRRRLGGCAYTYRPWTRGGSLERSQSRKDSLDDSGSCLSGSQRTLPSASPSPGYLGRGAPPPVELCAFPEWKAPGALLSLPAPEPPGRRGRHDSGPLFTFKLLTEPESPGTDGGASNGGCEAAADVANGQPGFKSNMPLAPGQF

[11] = molecular target: T5, Alpha-1D adrenergic receptor (Homo sapiens, UniProt P25100); experiment: Binding affinity to alpha1D adrenergic receptor (unknown origin) by radioligand displacement assay
T5 sequence (P25100 whole entry): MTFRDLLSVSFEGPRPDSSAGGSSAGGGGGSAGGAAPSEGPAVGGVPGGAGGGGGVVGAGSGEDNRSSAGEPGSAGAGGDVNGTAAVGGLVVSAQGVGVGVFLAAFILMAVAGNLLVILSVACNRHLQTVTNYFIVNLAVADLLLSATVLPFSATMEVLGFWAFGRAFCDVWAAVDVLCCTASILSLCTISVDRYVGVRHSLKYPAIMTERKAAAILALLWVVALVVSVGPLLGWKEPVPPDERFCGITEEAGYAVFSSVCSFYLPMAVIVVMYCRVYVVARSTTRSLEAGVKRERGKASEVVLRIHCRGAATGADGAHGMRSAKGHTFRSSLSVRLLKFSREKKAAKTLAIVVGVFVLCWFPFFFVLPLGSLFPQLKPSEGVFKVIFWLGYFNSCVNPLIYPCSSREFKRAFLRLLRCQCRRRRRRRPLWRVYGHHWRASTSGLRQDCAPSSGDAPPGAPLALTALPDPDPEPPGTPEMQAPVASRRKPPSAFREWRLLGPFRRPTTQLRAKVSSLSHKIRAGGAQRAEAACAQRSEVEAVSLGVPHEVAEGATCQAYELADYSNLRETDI

[12] = molecular target: T6, Alpha-2A adrenergic receptor (Homo sapiens, UniProt P08913); experiment: Binding affinity to alpha2A adrenergic receptor (unknown origin) by radioligand displacement assay
T6 sequence (P08913 whole entry): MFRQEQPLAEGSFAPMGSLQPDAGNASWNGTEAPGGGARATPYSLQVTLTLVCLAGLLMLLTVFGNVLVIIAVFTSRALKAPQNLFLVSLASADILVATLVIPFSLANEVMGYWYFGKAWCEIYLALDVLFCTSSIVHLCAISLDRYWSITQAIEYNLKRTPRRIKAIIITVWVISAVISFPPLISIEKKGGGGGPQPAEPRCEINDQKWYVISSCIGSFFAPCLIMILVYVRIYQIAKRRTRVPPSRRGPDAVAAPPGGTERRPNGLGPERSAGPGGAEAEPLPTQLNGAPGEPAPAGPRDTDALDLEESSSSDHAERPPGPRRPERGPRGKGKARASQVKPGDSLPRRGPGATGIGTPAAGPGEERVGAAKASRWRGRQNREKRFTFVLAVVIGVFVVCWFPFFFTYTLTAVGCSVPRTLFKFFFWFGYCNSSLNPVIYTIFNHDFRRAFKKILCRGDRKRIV

[13] = molecular target: Voltage-gated inwardly rectifying potassium channel KCNH2 (Homo sapiens, UniProt Q12809); experiment: Binding affinity to hERG by radioligand displacement assay; format: toxicity
[14] = Binding affinity to Sigma2 opioid receptor (unknown origin) by radioligand displacement assay; parameters: species or system Homo sapiens
[15] = molecular target: Atypical chemokine receptor 3 (Homo sapiens) (UniProt P25106); experiment: Agonist activity at CXCR7 receptor (unknown origin) assessed as beta arrestin2 recruitment at >=3 uM by PRESTO-Tango assay; format: functional; conditions: filed as agonist
[16] = molecular target: 5-hydroxytryptamine receptor 2A (Homo sapiens, UniProt P28223)

SMILES: C/C=C1/CN2CC[C@]34C(=C(C(=O)OC)[C@H]1C[C@H]23)Nc1ccc(I)cc14
- EC50 [1]: 5.7 nM
- EC50 [2]: 41000 nM
- Ki [3]: 0.087 nM
- Ki [4]: 3600 nM
- Ki [5]: 1 nM
- Ki [6]: 767 nM
- Ki [7]: 384 nM
- Ki [8]: 829 nM
- Ki [9]: 1380 nM
- Ki [10]: 2020 nM
- Ki [11]: 1140 nM
- Ki [12]: 732 nM
- Ki [13]: 1100 nM
- Ki [14]: 2220 nM
- Activity [15]: Active; Weak Activity Compared To Vuf11207
- Ki [16]: 2310 nM
